The source of these data is US20230204594A1, “SYSTEMS AND METHODS FOR REAL-TIME CELLULAR DRUG-TARGET ENGAGEMENT” (NERD BIO LLC, priority 2021, published 2023).

Read-outs that look alike come from different tables or passages of the source.

Test [1] concerns the target T1, BCL6 Micro-tagged protein (BCL6-S-tag fusion protein) (Homo sapiens, UniProt P41182).
T1 construct: expressed in transfected cells; host or cells: HEK293, lysate (1% Triton X-100 in TBS)
In words: Small molecule target engagement screening on lysates, micro-tagged BCL6 heated at Tmin. It counts as binding. As to the method: HEK293 cells were transfected using Lipofectamine 2000 according to manufacturer protocol. Two days after transfection, media was removed and cells lifted by pipetting up and down using 1×TBS. Cells were centrifuged at 400 g for 4 min. The TBS wash was removed and the cells lysed with either 1% Triton X 100 in TBS for MTH1 and BCL6, or 0.5% DDM in TBS for EGFR expressing cells. Cells were lysed at 4° C. on a rotator for 1 hour and cell debris removed by gentle centrifugation for 1 minute at 6000 rpm. Lysates were transferred to a new tube and aliquots that were not used immediately in the assay were frozen at −80° C. for future use.
Small molecule compounds were dissolved in DMSO at 10 mM and serial dilutions in DMSO at 100× concentration were prepared from this stock. Lysates from cells expressing the micro-tagged (S-peptide tagged) protein were diluted with cold 1×TBS at 1/10 and 39.6 ul aliquoted to a PCR plate; […]. The heated sample (30 ul) was added and fluorescence detected using a microplate reader. The plate was read in kinetic mode (excitation=485 nm, emission=520 nm) with the PolarStar Omega 96-well plate reader.
For analysis, the RAW fluorescence signal or fluorescence change per minute was plotted with inhibitor dose on a Semi-Log scale using GraphPad Prism. Nonlinear regression analysis was used for curve fitting to identify EC50 of target engagement or apparent KD.
After 4 minutes incubation the fluorescence detected could be plotted with dose of inhibitor tested on a semi-log scale. Using nonlinear regression analysis and fitting a Sigmoidal dose-response curve (with variable slope) using GraphPad Prism identified an EC50 of Target Engagement. […] The peak fluorescence signal identified the dose of inhibitor that saturates the micro-tag protein target. At concentrations of the inhibitor above this saturating dose there was rapid cleavage of the FRET-labeled substrate resulting in loss of fluorescence signal over time (Relative Light Unit per minute (RLU/min)) and lower fluorescence detected. At concentrations below this saturating dose the micro-tag construct was denatured in the heat challenge and there was less micro-tag available for enzyme complementation resulting in lower fluorescence signal (FIG. 36A). […].

The target in the next test is BCL6 (Homo sapiens, UniProt P41182). As to conditions: known value, read-out: in vitro IC50, cited from earlier work.

One may read the IC50 as the midpoint of a concentration-inhibition curve. Turning to `CNC(=O)COc1cc2cc(Nc3nc(N4CCC(C(=O)N(C)C)CC4)ncc3Cl)cc(OC)c2n(C)c1=O` [BI-3812], the EC50 worked out at 0.63 nM in test [1] (HEK293 lysates, heated at Tmin, fluorescence after 4 minutes incubation, FIG. 38A, read-out: EC50 of target engagement) and 0.9 nM in test [1] (after 15 minutes, FIG. 39B, read-out: EC50 of target engagement after removal of data points beyond the target saturation dose). Moreover, in test [1] (Saturation Binding Equation (One-site total), after 15 minutes, FIG. 39C, read-out: Apparent Equilibrium Dissociation Constant (apparent KD)), the Kd was 1.6 nM. In addition, the IC50 at BCL6 (well-characterized inhibitor) is about 3 nM.

As to `C[C@@H]1C[C@H](C)CN(c2ncc(Cl)c(Nc3ccc4c(c3)cc(OC(C)(C)C(=O)O)c(=O)n4C)n2)C1` [BI-5273], the “binding to the BCL6 micro-tag target” value in test [1] (HEK293 lysates, heated at Tmin, 4 minutes incubation, FIG. 38B) is reported as “did not bind the target”. Also, the IC50 on BCL6 (inactive structural analog) was about 10000 nM.
